Measured values taken from paper PMC12147714 (FEMS Microbiology Letters, 2025).

Experiments:
Type in all cases: cell-based, Pseudomonas aeruginosa
[1] = system: clinical isolate D1 (IMP-1); assay: microbe, parasite or virus in culture
Description: (§1) Thirty-two carbapenem-resistant clinical P. aeruginosa, with previously defined carbapenem-resistance mechanisms, were included.
(§2) The fractional inhibitory concentration index (FICI) was calculated and interpreted as follows: the MIC of drug A in combination/the MIC of drug A alone + the MIC of drug B in combination/the MIC drug B alone. FICI ≤ 0.5 = synergy; 0.5 < FICI ≤ 1 = additive; FICI 1 < FICI < 2 = indifference, and FICI ≥ 2 = antagonism. All susceptibility testing/checkerboard assays were performed in triplicate.

[2] = system: clinical isolate D10 (IMP-7); assay: microbe, parasite or virus in culture
Description: as §1, §2

[3] = system: clinical isolate D11 (IMP-7); assay: microbe, parasite or virus in culture
Description: as §1, §2

[4] = system: clinical isolate D12 (IMP-7); assay: microbe, parasite or virus in culture
Description: as §1, §2

[5] = system: clinical isolate D13 (IMP-7); assay: microbe, parasite or virus in culture
Description: as §1, §2

[6] = system: clinical isolate D14 (IMP-10); assay: microbe, parasite or virus in culture
Description: as §1, §2

[7] = system: clinical isolate D15 (IMP-13); assay: microbe, parasite or virus in culture
Description: as §1, §2

[8] = system: clinical isolate D16 (IMP-13); assay: microbe, parasite or virus in culture
Description: as §1, §2

[9] = system: clinical isolate D17 (IMP-13); assay: microbe, parasite or virus in culture
Description: as §1, §2

[10] = system: clinical isolate D18 (IMP-18); assay: microbe, parasite or virus in culture
Description: as §1, §2

[11] = system: clinical isolate D19 (IMP-4, OXA-181, VIM-5); assay: microbe, parasite or virus in culture
Description: as §1, §2

[12] = system: clinical isolate D2 (IMP-1); assay: microbe, parasite or virus in culture
Description: as §1, §2

[13] = system: clinical isolate D20 (NDM-1); assay: microbe, parasite or virus in culture
Description: as §1, §2

[14] = system: clinical isolate D21 (NDM-1); assay: microbe, parasite or virus in culture
Description: as §1, §2

[15] = system: clinical isolate D22 (NDM-1, VIM-2); assay: microbe, parasite or virus in culture
Description: as §1, §2

[16] = system: clinical isolate D23 (VIM-2); assay: microbe, parasite or virus in culture
Description: as §1, §2

[17] = system: clinical isolate D24 (VIM-2); assay: microbe, parasite or virus in culture
Description: as §1, §2

[18] = system: clinical isolate D25 (VIM-4); assay: microbe, parasite or virus in culture
Description: as §1, §2

[19] = system: clinical isolate D26 (VIM-4); assay: microbe, parasite or virus in culture
Description: as §1, §2

[20] = system: clinical isolate D27 (VIM-36); assay: microbe, parasite or virus in culture
Description: as §1, §2

[21] = system: clinical isolate D28 (GES-5, OXA-181); assay: microbe, parasite or virus in culture
Description: as §1, §2

[22] = system: clinical isolate D29 (KPC-2); assay: microbe, parasite or virus in culture
Description: as §1, §2

[23] = system: clinical isolate D3 (IMP-1); assay: microbe, parasite or virus in culture
Description: as §1, §2

[24] = system: clinical isolate D30 (KPC-2); assay: microbe, parasite or virus in culture
Description: as §1, §2

[25] = system: clinical isolate D31 (Permeability); assay: microbe, parasite or virus in culture
Description: as §1, §2

[26] = system: clinical isolate D32 (Permeability); assay: microbe, parasite or virus in culture
Description: as §1, §2

[27] = system: clinical isolate D4 (IMP-1); assay: microbe, parasite or virus in culture
Description: as §1, §2

[28] = system: clinical isolate D5 (IMP-1); assay: microbe, parasite or virus in culture
Description: as §1, §2

[29] = system: clinical isolate D6 (IMP-1); assay: microbe, parasite or virus in culture
Description: as §1, §2

[30] = system: clinical isolate D7 (IMP-1); assay: microbe, parasite or virus in culture
Description: as §1, §2

[31] = system: clinical isolate D8 (IMP-4); assay: microbe, parasite or virus in culture
Description: as §1, §2

[32] = system: clinical isolate D9 (IMP-7); assay: microbe, parasite or virus in culture
Description: as §1, §2

[33] = system: PAO1 and PAO1 TnoprD producing one of eight different carbapenemases; assay: MIC and checkerboard, isogenic strains as a group
Source text: Pseudomonas aeruginosa isolate, PAO1, was used alongside its isogenic counterpart, PAO1 TnoprD, which lacks a functional OprD porin (Held et al. [2012]). β-lactamases, blaIMP-1, blaIMP-10, blaIMP-13, blaNDM-1, blaSPM-1, blaVIM-1, blaVIM-2, and blaKPC-2, had previously been cloned into the pUCP24 shuttle vector (Bouvier et al. [2025]), and were transformed by electroporation into both PAO1 and PAO1 TnoprD.
as §2, with “. MICs of DMSA, CAZ, FEP and checkerboards for the combinations, CAZ/DMSA and FEP/DMSA, were performed for all clinical isolates. All susceptibility testing results were interpreted according to CLSI guidelines (CLSI [2023]). The” for “The”

`CC(C)(O/N=C(\C(=O)N[C@@H]1C(=O)N2C(C(=O)[O-])=C(C[n+]3ccccc3)CS[C@H]12)c1csc(N)n1)C(=O)O` [CAZ, ceftazidime] gave an MIC ([1]; Pseudomonas aeruginosa) of 1020 µg/mL, an MIC ([2]; Pseudomonas aeruginosa) of 512 µg/mL and an MIC ([3]; Pseudomonas aeruginosa) of 512 µg/mL. For the same compound, the MIC ([4]; Pseudomonas aeruginosa) was 512 µg/mL, the MIC ([5]; Pseudomonas aeruginosa) was 512 µg/mL and the MIC ([6]; Pseudomonas aeruginosa) was 1020 µg/mL. The MIC ([7]; Pseudomonas aeruginosa) was 512 µg/mL, the MIC ([8]; Pseudomonas aeruginosa) was 512 µg/mL and the MIC ([9]; Pseudomonas aeruginosa) was 256 µg/mL. For the same compound, the MIC ([10]; Pseudomonas aeruginosa) was 1020 µg/mL, the MIC ([11]; Pseudomonas aeruginosa) was 4100 µg/mL and the MIC ([12]; Pseudomonas aeruginosa) was 1020 µg/mL. For the same compound, the MIC ([13]; Pseudomonas aeruginosa) was 4100 µg/mL, the MIC ([14]; Pseudomonas aeruginosa) was 4100 µg/mL and the MIC ([15]; Pseudomonas aeruginosa) was 4100 µg/mL. It also gave an MIC ([16]; Pseudomonas aeruginosa) of 32 µg/mL, an MIC ([17]; Pseudomonas aeruginosa) of 32 µg/mL and an MIC ([18]; Pseudomonas aeruginosa) of 32 µg/mL. For the same compound, the MIC ([19]; Pseudomonas aeruginosa) was 128 µg/mL, the MIC ([20]; Pseudomonas aeruginosa) was 512 µg/mL and the MIC ([21]; Pseudomonas aeruginosa) was 16 µg/mL. For the same compound, the MIC ([22]; Pseudomonas aeruginosa) was 16 µg/mL, the MIC ([23]; Pseudomonas aeruginosa) was 512 µg/mL and the MIC ([24]; Pseudomonas aeruginosa) was 64 µg/mL. The MIC ([25]; Pseudomonas aeruginosa) was 128 µg/mL, the MIC ([26]; Pseudomonas aeruginosa) was 16 µg/mL and the MIC ([27]; Pseudomonas aeruginosa) was 1020 µg/mL. The MIC ([28]; Pseudomonas aeruginosa) was 512 µg/mL, the MIC ([29]; Pseudomonas aeruginosa) was 512 µg/mL and the MIC ([30]; Pseudomonas aeruginosa) was 1020 µg/mL. The MIC ([31]; Pseudomonas aeruginosa) was 2050 µg/mL, the MIC ([32]; Pseudomonas aeruginosa) was 256 µg/mL and the “interaction with DMSA as indicated by the FICIs” value ([33]; SPM-1 and VIM-1 strains, DMSA 200 mg/l) was “synergy (FICI ≤ 0.5 = synergy)”. For the same compound, the “interaction with DMSA as indicated by the FICIs” value ([33]; strains producing IMP-1, IMP-10 or IMP-13, with and without functional OprD, all three DMSA concentrations (100, 200, 300 mg/l)) was “synergy (FICI ≤ 0.5 = synergy)”.

`O=C(O)[C@@H](S)[C@@H](S)C(=O)O` [DMSA, meso-dimercaptosuccinic acid] gave an MIC ([1]; isolate D1, drug alone) of 600 µg/mL, an MIC ([2]; isolate D10, drug alone) of 600 µg/mL and an MIC ([3]; isolate D11, drug alone) of 600 µg/mL. For the same compound, the MIC ([4]; isolate D12, drug alone) was 600 µg/mL, the MIC ([5]; isolate D13, drug alone) was 700 µg/mL and the MIC ([6]; isolate D14, drug alone) was 900 µg/mL. It also gave an MIC ([7]; isolate D15, drug alone) of 500 µg/mL, an MIC ([8]; isolate D16, drug alone) of 600 µg/mL and an MIC ([9]; isolate D17, drug alone) of 700 µg/mL. For the same compound, the MIC ([10]; isolate D18, drug alone) was 600 µg/mL, the MIC ([11]; isolate D19, drug alone) was 600 µg/mL and the MIC ([12]; isolate D2, drug alone) was 600 µg/mL. It also gave an MIC ([13]; isolate D20, drug alone) of 700 µg/mL, an MIC ([14]; isolate D21, drug alone) of 700 µg/mL and an MIC ([15]; isolate D22, drug alone) of 700 µg/mL. For the same compound, the MIC ([16]; isolate D23, drug alone) was 700 µg/mL, the MIC ([17]; isolate D24, drug alone) was 600 µg/mL and the MIC ([18]; isolate D25, drug alone) was 600 µg/mL. The MIC ([19]; isolate D26, drug alone) was 700 µg/mL, the MIC ([20]; isolate D27, drug alone) was 800 µg/mL and the MIC ([21]; isolate D28, drug alone) was 600 µg/mL. The MIC ([22]; isolate D29, drug alone) was 800 µg/mL, the MIC ([23]; isolate D3, drug alone) was 700 µg/mL and the MIC ([24]; isolate D30, drug alone) was 800 µg/mL. The MIC ([25]; isolate D31, drug alone) was 1000 µg/mL, the MIC ([26]; isolate D32, drug alone) was 700 µg/mL and the MIC ([27]; isolate D4, drug alone) was 900 µg/mL. For the same compound, the MIC ([28]; isolate D5, drug alone) was 800 µg/mL, the MIC ([29]; isolate D6, drug alone) was 800 µg/mL and the MIC ([30]; isolate D7, drug alone) was 800 µg/mL. For the same compound, the MIC ([31]; isolate D8, drug alone) was 500 µg/mL, the MIC ([32]; isolate D9, drug alone) was 700 µg/mL and the “MIC to DMSA alone” value ([33]; all isogenic strains) was 900 µg/mL.
